Assay results from article PMC11714206, “Massively Parallel Screening of Toll/Interleukin‐1 Receptor (TIR)‐Derived Peptides Reveals Multiple Toll‐Like Receptors (TLRs)‐Targeting Immunomodulatory Peptides” (Advanced Science, 2024).
Values joined by “and” are separate entries in the source; they are usually repeats but may differ in a detail not shown here. Identical values can stand only once. Each block holds one sequence with its values, some of them ahead of it.

Target: T1, MyD88^TIR (Homo sapiens, UniProt Q99836)
T1 construct: MyD88 (residues 148–296); 6xHis; made in house; host or cells: E. coli BL21 (DE3)
Experiment: T‐Surf phage library (P8 and P3) selection against MyD88^TIR, four rounds, NGS read counts
Assay type: binding
Settings: for P8_MyD88 Rank (after) / P8_MyD88 Rank (before): P8 library; for P3_MyD88 Rank (after) / P3_MyD88 Rank (before): P3 library; for Population: 4th round of selection against MyD88 TIR, share of NGS reads
Method in brief: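 Coat TIR domain 5 µg mL^−1 overnight; block 0.2% BSA/PBS 1 h, 4 °C; add phage library 1 h, RT; wash ×4 PBS/0.5% Tween‐20; elute 100 mM HCl, neutralize Tris; amplify in TG1, PEG‐precipitate. Repeat to round 4; barcode PCR, NovaSeq, count reads.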

[1] = selection against MyD88 TIR, rank by count after grouping
[2] = selection against MyD88 TIR, rank by count before grouping
[3] = selection against MyD88, rank by count after grouping
[4] = selection against MyD88, rank by count before grouping
[5] = P3_MyD88: rank by count after grouping
[6] = P3_MyD88: rank by count before grouping
[7] = P3_MyD88 pool: P3 T-Surf phage library
[8] = selection against MyD88, rank after grouping
[9] = selection against MyD88, rank before grouping
[10] = 4R selection against MyD88, rank after grouping
[11] = 4R selection against MyD88, rank before grouping
[12] = P8_MyD88: rank by count after grouping
[13] = P8_MyD88: rank by count before grouping
[14] = P8_MyD88 pool: P8 T-Surf phage library

T1 sequence (Q99836 148-296): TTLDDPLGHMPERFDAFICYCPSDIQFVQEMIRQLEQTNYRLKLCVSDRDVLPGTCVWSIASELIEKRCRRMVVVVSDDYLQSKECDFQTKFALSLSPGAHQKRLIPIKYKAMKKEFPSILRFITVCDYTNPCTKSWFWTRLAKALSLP

Sequence: LKVESWRQALEKAGKL
P8_MyD88 Rank (after) [1]: 211
P8_MyD88 Rank (before) [2]: 326

Sequence: LKVESWRQALEKAGKLRYAM
P3_MyD88 Rank (after) [3]: 707
P3_MyD88 Rank (before) [4]: 2496

Sequence: LKWEGPYFWRKMRYAL
Rank (after) [5]: 477
Rank (before) [6]: 2457

Sequence: LKWGDERFWERLVYVM
P8_MyD88 Rank (after) [1]: 191
P8_MyD88 Rank (before) [2]: 250

Sequence: LKWGDPAYRLALHYRDFN
P3_MyD88 Rank (after) [8]: 500
P3_MyD88 Rank (before) [9]: 2445

Sequence: LKWGDPWFWDRLRFA
Population [7]: 0.00437%

Sequence: LKWGDPYFWSKLLYSM
P3_MyD88 Rank (after) [1]: 247
P3_MyD88 Rank (before) [2]: 2423

Sequence: LKWGDPYLCSKLRYAM
P3_MyD88 Rank (after) [3]: 726
P3_MyD88 Rank (before) [4]: 2442

Sequence: LKWGEPYFCSKLRYAM
Rank (after) [5]: 476
Rank (before) [6]: 2449

Sequence: LKWGGSCLSIKLAYAM
Rank (after) [5]: 445
Rank (before) [6]: 2411

Sequence: LQNQWKLALNKVANLP
Rank (after) [5]: 417
Rank (before) [6]: 2361

Sequence: LSRVPSVHDFRGFATI
Rank (after) [5]: 111
Rank (before) [6]: 682

Sequence: LSRVPSVHDFRGLMSI
Rank (after) [5]: 416
Rank (before) [6]: 2389

Sequence: LSRVTSVHDARGLGGI
P3_MyD88 Rank (after) [8]: 564
P3_MyD88 Rank (before) [9]: 2395

Sequence: LVAHEISKKKKIFATI
Population [7]: 0.00291%

Sequence: LVAHEISKKLKNFPTI
P3_MyD88 Rank (after) [8]: 518
P3_MyD88 Rank (before) [9]: 2289

Sequence: LVAHEISKKMKIFETI
Population [7]: 0.00466%

Sequence: LVAHEISKKRKIFATS
P3_MyD88 Rank (after) [8]: 511
P3_MyD88 Rank (before) [9]: 2306

Sequence: LVAHEITPSLFKAIKE
Rank (after) [5]: 161
Rank (before) [6]: 676

Sequence: LVAHELSNKMKSFATI
Rank (after) [5]: 386
Rank (before) [6]: 2276

Sequence: LVANEISKKIKIFAII
P3_MyD88 Rank (after) [8]: 533
P3_MyD88 Rank (before) [9]: 2319

Sequence: LVAQEISKIKTMLATT
P3_MyD88 Rank (after) [8]: 561
P3_MyD88 Rank (before) [9]: 2317

Sequence: LVAQEISKKMKIFATI
Population [7]: 0.00495% and 0.00466%

Sequence: LVYHWIDWEYFVGIED
Population [14]: 0.0108%

Sequence: LVYHWIDWVYFVGIED
P8_MyD88 Rank (after) [10]: 659
P8_MyD88 Rank (before) [11]: 3211

Sequence: MFGGATLHDVLELISM
P8_MyD88 Rank (after) [8]: 509
P8_MyD88 Rank (before) [9]: 3654

Sequence: MFGGDSFHDFLELISM
Rank (after) [12]: 391
Rank (before) [13]: 3656

Sequence: MFGGDTFHDFLDLLA
P8_MyD88 Rank (after) [3]: 690
P8_MyD88 Rank (before) [4]: 3664

Sequence: MVGGDTFHDFLDIISM
P8_MyD88 Rank (after) [10]: 655
P8_MyD88 Rank (before) [11]: 3677

Sequence: NDLLHVWSSKANSLVG
P3_MyD88 Rank (after) [8]: 527
P3_MyD88 Rank (before) [9]: 3389

Sequence: NDLVHGWSSKANSLVG
Rank (after) [5]: 136
Rank (before) [6]: 3388

Sequence: NDLVHVWSSKANSLVG
Population [7]: 0.00495%

Sequence: NDSLFWDRLPYSLNVT
Rank (after) [12]: 468
Rank (before) [13]: 3868

Sequence: NELCMCGAAKRIAWW
Rank (after) [5]: 175
Rank (before) [6]: 1238

Sequence: NELIDVGHSYSMHRGG
P3_MyD88 Rank (after) [3]: 743
P3_MyD88 Rank (before) [4]: 3387

Sequence: NELVHEISKKMKIFATI
Rank (after) [5]: 398
Rank (before) [6]: 3443

The next lines start with the values.

Rank (after) [5]: 126
Rank (before) [6]: 1081
Sequence: LKVESWRQALEKAGN

Population [7]: 0.00349%
Sequence: LKVESWRQALGKAGKL

Population [7]: 0.00378%
Sequence: LKVESWRQALKERLP

Population [7]: 0.00349%
Sequence: LKVESWRQAQEKAGKL

Rank (after) [5]: 403
Rank (before) [6]: 2415
Sequence: LKWGDPYFCSKLRYPM

Rank (after) [5]: 127
Rank (before) [6]: 2450
Sequence: LKWGEPYCWSKLRYAM

P3_MyD88 Rank (after) [1]: 222
P3_MyD88 Rank (before) [2]: 2409
Sequence: LKWGSVFLEQTALCD

P3_MyD88 Rank (after) [8]: 523
P3_MyD88 Rank (before) [9]: 2262
Sequence: LLAHEISKNMKIFATI

Rank (after) [5]: 131
Rank (before) [6]: 2401
Sequence: LNVEGWRQALEKAGKL

P3_MyD88 Rank (after) [1]: 230
P3_MyD88 Rank (before) [2]: 2403
Sequence: LNVESWRKALEKAGKL

Rank (after) [5]: 187
Rank (before) [6]: 2402
Sequence: LNVESWRQALERAGKL

Population [7]: 0.00291%
Sequence: LNWGDPYFWSKLRYAM

P3_MyD88 Rank (after) [3]: 733
P3_MyD88 Rank (before) [4]: 2336
Sequence: LQNQWELALTKKTKLV

P3_MyD88 Rank (after) [10]: 585
P3_MyD88 Rank (before) [11]: 2346
Sequence: LQNQWKLALTNSGFHTFRDND

P8_MyD88 Rank (after) [1]: 237
P8_MyD88 Rank (before) [2]: 416
Sequence: LRYDDPWFWEKLVFAM

P3_MyD88 Rank (after) [1]: 202
P3_MyD88 Rank (before) [2]: 2375
Sequence: LSEESWRQALEKAGKL

Rank (after) [5]: 441
Rank (before) [6]: 2377
Sequence: LSRVPGVHDFRGLVDI

P3_MyD88 Rank (after) [8]: 529
P3_MyD88 Rank (before) [9]: 2378
Sequence: LSRVPSGHVIPGFVAI

P3_MyD88 Rank (after) [8]: 573
P3_MyD88 Rank (before) [9]: 2392
Sequence: LSRVPSVHEFRGFVGV

Rank (after) [12]: 104
Rank (before) [13]: 110
Population [14]: 0.02%
Sequence: LTDVANILGYHWIDWE

Rank (after) [12]: 170
Rank (before) [13]: 200
Sequence: LTEEIVNHILKRLAEL

P3_MyD88 Rank (after) [3]: 709
P3_MyD88 Rank (before) [4]: 2288
Sequence: LVAHEISKKLKIFATM

Population [7]: 0.00291%
Sequence: LVAHEISKKMKIFATF

Rank (after) [5]: 413
Rank (before) [6]: 2302
Sequence: LVAHEISKKMKIFRP

P3_MyD88 Rank (after) [3]: 681
P3_MyD88 Rank (before) [4]: 2284
Sequence: LVAHEISKMLKIFETI

P3_MyD88 Rank (after) [3]: 694
P3_MyD88 Rank (before) [4]: 2285
Sequence: LVAHEISKMMKVFATI

Rank (after) [5]: 143
Rank (before) [6]: 2283
Sequence: LVAHEISNNMKIFATI

P3_MyD88 Rank (after) [10]: 641
P3_MyD88 Rank (before) [11]: 2309
Sequence: LVAHEITKKLKSFATI

P3_MyD88 Rank (after) [1]: 232
P3_MyD88 Rank (before) [2]: 2275
Sequence: LVAHELLKKMKIFATI

Rank (after) [5]: 389
Rank (before) [6]: 2314
Sequence: LVAHQISKTIKIFATI

P3_MyD88 Rank (after) [10]: 621
P3_MyD88 Rank (before) [11]: 2315
Sequence: LVAHRFSKKMKIFATM

P3_MyD88 Rank (after) [8]: 513
P3_MyD88 Rank (before) [9]: 2316
Sequence: LVAHRMSKKMKNVATI

P3_MyD88 Rank (after) [1]: 228
P3_MyD88 Rank (before) [2]: 2269
Sequence: LVALEISKKMTIFATI

P3_MyD88 Rank (after) [8]: 505
P3_MyD88 Rank (before) [9]: 2318
Sequence: LVAMKLPRACLKRLK

P3_MyD88 Rank (after) [10]: 638
P3_MyD88 Rank (before) [11]: 2265
Sequence: LVSHEISKKVKIFATI

Rank (after) [12]: 102
Rank (before) [13]: 105
Population [14]: 0.022%
Sequence: MDYLLRILHSSNFTTF

P8_MyD88 Rank (after) [3]: 769
P8_MyD88 Rank (before) [4]: 3687
Sequence: MEANSSRIWHRLLYSV

P8_MyD88 Rank (after) [10]: 592
P8_MyD88 Rank (before) [11]: 3655
Sequence: MFGGDPLHDFLDLISL

P8_MyD88 Rank (after) [10]: 593
P8_MyD88 Rank (before) [11]: 3670
Sequence: MFGGDTFMIFWILLA

Rank (after) [5]: 170
Rank (before) [6]: 1156
Sequence: MNWCMCGAAKRIAWW

Rank (after) [12]: 187
Rank (before) [13]: 270
Sequence: NDSLFWDRLLYSLHVTE

P3_MyD88 Rank (after) [10]: 648
P3_MyD88 Rank (before) [11]: 3394
Sequence: NELLHVWSSKANSLEG

Rank (after) [5]: 452
Rank (before) [6]: 3442
Sequence: NELVHEWSSKANSVVG

P3_MyD88 Rank (after) [1]: 287
P3_MyD88 Rank (before) [2]: 3397
Sequence: NELVHEWSSKLMSLGV

P3_MyD88 Rank (after) [1]: 275
P3_MyD88 Rank (before) [2]: 3406
Sequence: NELVHVCFSNENSQVG
